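Interpolation was linear, between the two tested concentrations surrounding the appropriate level; five concentrations were tested over 48 hours in 96-well plates. GI50 is the concentration that inhibits growth by half.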 Active and inactive are the calls of the source. Cut-off read from the data, not from the text of the source: active = GI50 up to about 1.1 µM and inactive = higher.
Key:
Assay in all cases: inhibition of tumour cell growth, NCI panel, 48 h
[1] = tested on: NCI-H460
[2] = tested on: OVCAR-4
[3] = tested on: OVCAR-8
[4] = tested on: HOP-62
[5] = tested on: SF-539
[6] = tested on: NCI/ADR-RES
[7] = tested on: RXF 393
[8] = tested on: HT-29
[9] = tested on: Malme-3M
[10] = tested on: SN12C
[11] = tested on: MCF7
[12] = tested on: PC-3
[13] = tested on: HCT-116
[14] = tested on: HOP-92
[15] = tested on: SF-268
[16] = tested on: HCC 2998
[17] = tested on: COLO 205
[18] = tested on: KM12
[19] = tested on: ACHN
[20] = tested on: T47D
[21] = tested on: DU-145
[22] = tested on: SW-620
[23] = tested on: MDA-MB-435
[24] = tested on: NCI-H23
[25] = tested on: RPMI-8226
[26] = tested on: OVCAR-3
[27] = tested on: K562
[28] = tested on: SK-MEL-2
[29] = tested on: CAKI-1
[30] = tested on: SNB-19
[31] = tested on: SK-MEL-28
[32] = tested on: 786-0
[33] = tested on: SK-MEL-5
[34] = tested on: UO-31
[35] = tested on: A498
[36] = tested on: HCT-15
[37] = tested on: SK-OV-3
[38] = tested on: A549
[39] = tested on: M14
[40] = tested on: MDA-N
[41] = tested on: U-251
[42] = tested on: SF-295
[43] = tested on: NCI-H522
[44] = tested on: MDA-MB-231
[45] = tested on: MOLT-4
[46] = tested on: OVCAR-5
[47] = tested on: UACC-62
[48] = tested on: HL-60
[49] = tested on: IGROV-1
[50] = tested on: CCRF-CEM
[51] = tested on: SR
[52] = tested on: Hs-578T
[53] = tested on: SNB-75

Compound: CC1(C)O[C@@H]2[C@@H](COC(C)(C)O[C@H]2C2SCCCS2)O1
- GI50 [1]: > 100 µM (inactive)
- GI50 [2]: > 100 µM (inactive)
- GI50 [3]: > 100 µM (inactive)
- GI50 [4]: > 100 µM (inactive)
- GI50 [5]: > 100 µM (inactive)
- GI50 [6]: > 100 µM (inactive)
- GI50 [7]: > 100 µM (inactive)
- GI50 [8]: > 100 µM (inactive)
- GI50 [9]: > 100 µM (inactive)
- GI50 [10]: > 100 µM (inactive)
- GI50 [11]: > 100 µM (inactive)
- GI50 [12]: > 100 µM (inactive)
- GI50 [13]: > 100 µM (inactive)
- GI50 [14]: 92.7 µM (inactive)
- GI50 [15]: > 100 µM (inactive)
- GI50 [16]: > 100 µM (inactive)
- GI50 [17]: > 100 µM (inactive)
- GI50 [18]: > 100 µM (inactive)
- GI50 [19]: > 100 µM (inactive)
- GI50 [20]: > 100 µM (inactive)
- GI50 [21]: > 100 µM (inactive)
- GI50 [22]: > 100 µM (inactive)
- GI50 [23]: > 100 µM (inactive)
- GI50 [24]: > 100 µM (inactive)
- GI50 [25]: > 100 µM (inactive)
- GI50 [26]: > 100 µM (inactive)
- GI50 [27]: > 100 µM (inactive)
- GI50 [28]: > 100 µM (inactive)
- GI50 [29]: > 100 µM (inactive)
- GI50 [30]: > 100 µM (inactive)
- GI50 [31]: > 100 µM (inactive)
- GI50 [32]: > 100 µM (inactive)
- GI50 [33]: > 100 µM (inactive)
- GI50 [34]: > 100 µM (inactive)
- GI50 [35]: > 100 µM (inactive)
- GI50 [36]: > 100 µM
- GI50 [37]: > 100 µM (inactive)
- GI50 [38]: > 100 µM (inactive)
- GI50 [39]: > 100 µM (inactive)
- GI50 [40]: > 100 µM (inactive)
- GI50 [41]: > 100 µM (inactive)
- GI50 [42]: > 100 µM (inactive)
- GI50 [43]: > 100 µM (inactive)
- GI50 [44]: > 100 µM (inactive)
- GI50 [45]: > 100 µM (inactive)
- GI50 [46]: > 100 µM (inactive)
- GI50 [47]: > 100 µM (inactive)

Compound: S=C(/C=C1\SC(=N\c2ccccc2)/C(=N/c2ccccc2)N1c1ccccc1)Nc1ccccc1
- GI50 [1]: > 100 µM (inactive)
- GI50 [3]: > 100 µM (inactive)
- GI50 [4]: > 100 µM (inactive)
- GI50 [6]: > 100 µM (inactive)
- GI50 [8]: > 100 µM (inactive)
- GI50 [48]: > 100 µM (inactive)
- GI50 [9]: > 100 µM (inactive)
- GI50 [10]: > 100 µM (inactive)
- GI50 [12]: > 100 µM (inactive)
- GI50 [13]: > 100 µM (inactive)
- GI50 [14]: > 100 µM (inactive)
- GI50 [17]: > 100 µM (inactive)
- GI50 [18]: > 100 µM (inactive)
- GI50 [20]: > 100 µM (inactive)
- GI50 [21]: > 100 µM (inactive)
- GI50 [23]: > 100 µM (inactive)
- GI50 [24]: > 100 µM (inactive)
- GI50 [25]: > 100 µM (inactive)
- GI50 [26]: > 100 µM (inactive)
- GI50 [28]: > 100 µM (inactive)
- GI50 [29]: > 100 µM (inactive)
- GI50 [49]: > 100 µM (inactive)
- GI50 [31]: > 100 µM (inactive)
- GI50 [33]: > 100 µM (inactive)
- GI50 [35]: > 100 µM (inactive)
- GI50 [50]: 3.66 µM (inactive)
- GI50 [36]: > 100 µM
- GI50 [37]: 67.3 µM (inactive)
- GI50 [51]: > 100 µM (inactive)
- GI50 [39]: > 100 µM (inactive)
- GI50 [40]: > 100 µM (inactive)
- GI50 [41]: > 100 µM (inactive)
- GI50 [42]: > 100 µM (inactive)
- GI50 [52]: > 100 µM (inactive)
- GI50 [43]: > 100 µM (inactive)
- GI50 [53]: > 100 µM (inactive)
- GI50 [44]: > 100 µM (inactive)
- GI50 [45]: 15.2 µM (inactive)
- GI50 [47]: 51.6 µM (inactive)
